Reference: patent US5670498A, “8-substituted styryl xanthine derivatives” (Kyowa Hakko Kogyo Co., Ltd., priority 1992, dated 1997)

Tests used:
[1] = tested on: Clonidine-Induced Aggressive Behavior; assay: Effect on Clonidine-Induced Aggressive Behavior; format: in vivo, male ddY mice; settings: 10 mg/kg po, clonidine 20 mg/kg ip
Protocol: Effect on Clonidine-Induced Aggressive Behavior The effect of a test compound on the aggressive behavior induced by intraperitoneal administration of clonidine was investigated [Eur. J. Pharmacol., 29, 374 (1968)]. The experiment was performed by using several groups of male ddY mice (weighing 20 to 25 g, Japan SLC), each group consisting of two mice. The test compound was suspended in injectable distilled water (Otsuka Pharmaceutical Co., Ltd.) containing Tween 80. Clonidine hydrochloride (Sigma Co.) was dissolved in physiological saline solution (Otsuka Pharmaceutical Co., Ltd.). The test compound suspension and the control suspension [injectable distilled water (Otsuka Pharmaceutical Co., Ltd.) containing Tween 80] were orally administered to separate groups of the mice (0.1 ml per 10 g of body weight). Sixty minutes after the oral administration of the test compound, clonidine hydrochloride (20 mg/kg) was intraperitoneally injected. The number of biting attacks during 30 minutes after clonidine treatment was counted. The effect of the compound was evaluated by comparing the average number of biting attacks of the test compound-administered groups with that of control groups (Student's t-test).

adenosine A2 receptor = biological target: T1, adenosine A2 receptor (Rattus norvegicus, UniProt P30543); assay: Adenosine A2 Receptor Binding Test (3H-CGS 21680, rat corpus striatum)
T1 construct: Corpus striatum of a rat was suspended in ice-cooled 50 mM Tris; from tissue; host or cells: rat corpus striatum (washed membrane suspension)
Protocol: Adenosine Receptor Antagonistic Activity (Adenosine A2 Receptor Binding Test)
Corpus striatum of a rat was suspended in ice-cooled 50 mM Tris hydroxymethyl aminomethane hydrochloride (Tris HCl) buffer (pH 7.7) by using Polytron homogenizer (manufactured by Kinematicas Co.). The suspension was centrifuged (50,000×g, 10 minutes), and the precipitate was suspended again in the same amount of 50 mM Tris HCl buffer. The suspension was centrifuged under the same conditions, and the final precipitate was suspended once again in 50 mM Tris HCl buffer containing 10 mM magnesium chloride and 0.02 unit/mg tissue of adenosine deaminase (manufactured by Sigma Co.) to give a tissue concentration of 5 mg (wet weight)/ml.
To 1 ml of the tissue suspension thus prepared were added 50 μl of a mixture of N-ethylcarboxamidoadenosine labeled with tritium (^3 H-NECA: 26 Ci/mmol, manufactured by Amersham Co.) (final concentration: 3.8 nM) and cyclopentyladenosine (CPA, manufactured by Sigma Co.) (final concentration: 50 nM), and 50 μl of a test compound. The resulting mixture was allowed to stand at 25° C. for 120 minutes and then rapidly filtered by suction through a glass fiber filter (GF/C, manufactured by Whatman Co.). The filter was immediately washed three times with 5 ml each of ice-cooled 50 mM Tris HCl buffer, and transferred to a vial, and a scintillator (EX-H by Wako Pure Chemical Industries, Ltd.) was added thereto. The radioactivity on the filter was determined with a liquid scintillation counter (manufactured by Packard instrument Co.).
The similar procedure as above was repeated to determine the radioactivity bound to the A2 receptors using 50 μl of CGS 21680 labeled with tritium {^3 H-2-[p-(2-carboxyethyl)phenethylamino]-5'-(N-ethylcarboxamide)adenosine: 40 Ci/mmol, manufactured by New England Nuclear Co. [J. Pharmacol. Exp. Ther., 251, 888 (1989)]} (final concentration: 4.0 nM) in place of 50 μl of the mixture of N-ethylcarboxamidoadenosine labeled with tritium (^3 H-NECA: 26 Ci/mmol, manufactured by Amersham Co.) (final concentration: 3.8 nM) and cyclopentyladenosine (CPA, manufactured by Sigma Co.) (final concentration: 50 nM).
The inhibition rate of the test compound against the binding of A2 receptors (^3 H-CGS 21680 binding) was calculated by the following equation: [formula]
The Ki values shown in the table were calculated by the following equation: [formula]

[2] = tested on: Haloperidol-Induced Catalepsy; assay: Effect on Haloperidol-Induced Catalepsy; format: in vivo, male ddY mice; settings: 10 mg/kg po
Protocol: Effect on Haloperidol-Induced Catalepsy Parkinson's disease is a clinical syndrome caused by degeneration of nigrostriatal dopaminergic neurons. […] The experiment was performed by using several groups of 5-weeks-old male ddY mice (weighing 22 to 24 g, Japan SLC), each group consisting of 5 mice. Haloperidol (Janssen Pharmaceutica) suspended in 0.3% CMC was intraperitoneally administered to each mouse at a dose of 1.0 mg/kg. Test compounds were suspended in injectable distilled water (Otsuka Pharmaceutical Co., Ltd.) containing Tween 80 [polyoxyethylene (20) sorbitan monooleate]. L-DOPA (Kyowa Hakko Kogyo Co., Ltd.) and benserazide hydrochloride (Kyowa Hakko Kogyo Co., Ltd.) were suspended in 0.3% CMC. One hour after the haloperidol administration, the test compound suspensions and the control suspension [injectable distilled water (Otsuka Pharmaceutical Co., Ltd.) containing Tween 80] containing no test compound were orally administered to separate groups of the mice (0.1 ml per 10 g of body weight). One hour after the administration of the test compound, the forelimbs of each mouse and subsequently the hindlimbs of the same mouse were placed on a 4.5 cm-high, 1.0 cm-wide bar and catalepsy was estimated. […] The catalepsy score and the standard of judgment are shown below. […] The effect of the compounds was evaluated by the total of the catalepsy scores of five mice in each group (25 points at the full).

[3] = read-out: A2 Receptor Inhibition Rate

T1 sequence (P30543 whole entry): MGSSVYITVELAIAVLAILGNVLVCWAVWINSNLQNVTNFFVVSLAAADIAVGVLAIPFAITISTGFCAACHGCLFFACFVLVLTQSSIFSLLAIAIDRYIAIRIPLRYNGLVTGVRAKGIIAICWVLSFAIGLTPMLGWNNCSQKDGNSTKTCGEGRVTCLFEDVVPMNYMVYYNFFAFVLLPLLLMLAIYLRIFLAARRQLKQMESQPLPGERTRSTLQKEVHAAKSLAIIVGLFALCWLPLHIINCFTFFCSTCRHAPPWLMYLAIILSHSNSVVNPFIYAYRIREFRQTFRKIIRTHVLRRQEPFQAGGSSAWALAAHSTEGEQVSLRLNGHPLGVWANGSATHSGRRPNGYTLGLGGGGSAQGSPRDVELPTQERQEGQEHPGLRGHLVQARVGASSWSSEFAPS

CCn1c(=O)c2c(nc(/C=C/c3cccc(C(C)=O)c3)n2C)n(CC)c1=O [Compound 24, (E)-8-(3-Acetylstyryl)-1,3-diethyl-7-methylxanthine]
Number of the Attacks of Test Compound-Treated Group/Number of the Attacks of Control Group [1]: 5.3 | Number of the Biting Attacks (mean ± S.E.M.), Test Compound-Treated Group ([1]; 30 minutes, control 6.3 ± 2.09, p < 0.05): 33.1 ± 7.16 | Ki (adenosine A2 receptor; [3H]CGS 21680 (inhibition rates of the same line marked *)): 13 nM | inhibition at 0.1 µM (adenosine A2 receptor; [3]): 85% | inhibition at 1 µM (adenosine A2 receptor; [3]): 99% | Total Score (catalepsy) ([2]; sum of five mice, 25 points at the full, control 25): 7 | inhibition in vivo at 10 mg/kg ([2]; Mus musculus, decrease in total score based on control group, read-out: Remission Rate): 72%
